Results: patent US7482308B2, “Difluoromethanesulfonyl anilide derivatives useful as herbicides” (Bayer CropScience AG, priority 2004, dated 2009)

How the values were obtained:
Assay type in all cases: in vivo
[1] = test system: Monochoria vaginalis Presi; assay: Test for residual effectiveness against paddy field weeds (Test Example 2); conditions: 60 g ai/ha; period of maintaining herbicidal effect of higher than 80%
From the text: (§1) In a green house a 1000 cm^2 pot was filled with paddy field soil and water was poured to a depth of about 2 to 3 cm. A prescribed, diluted solution of the above-mentioned Test Example 1, was applied to the surface of water. After the prescribed time after the treatment (just after treatment, 1 week, 2 weeks, 3 weeks, 4 weeks, 5 weeks, 6 weeks and 7 weeks after treatment), seeds or tubers of the weeds to be tested Scirpus juncoides Roxburgh, Monochoria vaginalis Presi, annual broad-leaved weeds (Lindernia procumbens Philcox, Rotala indica Koehne, Elatine triandra Schk, Ammannia multiflora Roxb., etc.), Cyperus serotinus Rottboel and Sagittaria pygmaea Miq. were inoculated. Three weeks after the inoculation each herbicidal effect was examined.
(§2) The evaluation of the residual effectiveness was shown as the period (number of weeks) of maintaining herbicidal effect of higher than 80%, after the evaluation of herbicidal effect had been conducted in the similar manner as the above-mentioned Test Example 1.

Sagittaria pygmaea Miq. = assay: as above; conditions: 60 g ai/ha; period of maintaining herbicidal effect of higher than 80%
From the text: as §1, §2

[2] = test system: annual broad-leaved weeds; assay: as above; conditions: 60 g ai/ha; period of maintaining herbicidal effect of higher than 80%
From the text: as §1, §2

[3] = test system: Scirpus juncoides Roxburgh; assay: as above; conditions: 60 g ai/ha; period of maintaining herbicidal effect of higher than 80%
From the text: as §1, §2

[4] = test system: Monochoria vaginalis Presi; assay: Herbicidal effect against paddy field weeds, spray at two leaf-stage of rice (Test Example 5); conditions: 50 g ai/ha, evaluated 3 weeks after treatment
From the text: (§3) In a greenhouse seeds of Scirpus juncoides Roxburgh, Monochoria vaginalis Presi, Cyperus difformis L., annual broad-leaved weeds (Lindernia procumbens Philcox, Rotala indica Koehne, Elatine triandra Schk, Ammannia multiflora Roxb.) and rice (var.: Nipponbare and RD-23) were inoculated in a 500 cm^2 pot filled with paddy field soil. Then water was poured to a depth of about 0 to about 0.5 cm, to be a wet condition. At two leaf-stage of rice, a prescribed, diluted solution of the formulation of each active compound, prepared in the same manner as the above-mentioned Test Example 1, was sprayed over the pots with plants. At 2 days after the treatment, the water depth of 3 cm was maintained and the herbicidal effect and rice injury was evaluated at 3 weeks and 2 weeks after the treatment, respectively.
(§4) The herbicidal effect and rice injury were rated 100% in the case of complete death and as 0% in the case of no effect or injury. In case of showing higher than 80% herbicidal effect and less than 20% injury, it is evaluated as practical as rice herbicide.

[5] = test system: annual broad-leaved weeds; assay: as above; conditions: 50 g ai/ha, evaluated 3 weeks after treatment
From the text: as §3, §4

Cyperus difformis L. = assay: as above; conditions: 50 g ai/ha, evaluated 3 weeks after treatment
From the text: as §3, §4

[6] = test system: Scirpus juncoides Roxburgh; assay: as above; conditions: 50 g ai/ha, evaluated 3 weeks after treatment
From the text: as §3, §4

[7] = test system: transplanted rice (var. Nipponbare); assay: Test for phytotoxicity to transplanted rice (Test Example 4); conditions: 60 g ai/ha, application 5 days after transplanting, examined 2 weeks after treatment; for phytotoxicity to transplanted rice depth 0 cm: planting depth 0 cm; for phytotoxicity to transplanted rice depth 0.5 cm: planting depth 0.5 cm; for phytotoxicity to transplanted rice depth 2 cm: planting depth 2 cm
Method: The phytotoxicity to transplanted rice was evaluated under the conditions with more shallow planting depths than usual depth of 2 cm, simulating the severe condition for herbicides to cause rice injury in the paddy. In a greenhouse 2 to 2.5 leaf-stage of rice (var. Nipponbare) was transplanted at three different depths, in a 1000 cm^2 pot filled with paddy field soil. Then water was poured to a depth of about 2 to about 3 cm. Five days after transplanting, a prescribed, diluted solution of the formulation of each active compound, prepared in the same manner as the above-mentioned Test Example 1, was applied to the surface of water. After the treatment the water depth of 3 cm was maintained and the rice injury was examined after 2 weeks from the treatment. The rice injury was rated 100% in the case of complete death and as 0% in the case of no injury. In case of showing less than 20% injury, it is evaluated as practical as rice herbicide.

[8] = test system: direct-seedling rice var. RD-23; assay: Test for phytotoxicity to direct-seedling rice (Test Example 5); conditions: 50 g ai/ha; spray at two leaf-stage of rice; evaluated 2 weeks after treatment
From the text: as §3, §4

[9] = test system: direct-seedling rice var. Nipponbare; assay: as above; conditions: 50 g ai/ha; spray at two leaf-stage of rice; evaluated 2 weeks after treatment
From the text: as §3, §4

[10] = test system: sulfonylurea resistant Scirpus juncoides Roxburgh (collected in Iwamizawa area, Hokkaido); assay: Test for herbicidal effect against sulfonylurea resistant weeds (Test Example 3); conditions: applied at beginning of emergence, examined 3 weeks after treatment
From the text: (§5) In a green house seeds of Scirpus juncoides Roxburgh (collected in Iwamizawa area, Hokkaido), Lindernia procumbens Philcox (collected in Kazo area, Saitama Pref.), Lindernia procumbens Philcox (collected in Higashi-Hiroshima area, Hiroshima Pref.), Elatine triandra Schk (collected in Kazo area, Saitama Pref.), all of which were confirmed as sulfonylurea resistant, were inoculated in a 20 cm^2 cup filled with paddy field soil. Then water was poured to a depth of about 2 to 3 cm. At the beginning of emergence of each weed, a prescribed, diluted solution of the formulation of each active compound prepared in the same manner as the above-mentioned Test Example 1 was applied to the surface of water. After the treatment the water depth of 3 cm was maintained and the herbicidal effect was examined after 3 weeks from the treatment. The evaluation of the herbicidal effect was conducted in the same manner as the above-mentioned Test Example 1. In case of showing higher than 80% herbicidal effect, it is evaluated as practical as herbicide. In consideration of the possibility that the biological properties including herbicide resistance of the plants grown in different areas might be different, sulfonylurea resistant Lindernia procumbens Philcox collected in two different areas were used in the present tests. The study results with the compounds No. 1, 3, 11 and 17 and the comparative compound No. C-1 as specific examples are shown in the following Table 6.

[11] = test system: sulfonylurea resistant Lindernia procumbens Philcox (collected in Kazo area, Saitama Pref.); assay: as above; conditions: applied at beginning of emergence, examined 3 weeks after treatment
From the text: as §5

[12] = test system: Monochoria vaginalis Presi; assay: Test for herbicidal effect against paddy field weeds (Test Example 1); conditions: examined 3 weeks after treatment
Method: (§6) Preparation of Formulation of the Active Compound
(§7) • Carrier: DMF 5 parts by weight • Emulsifier: Benzyloxy polyglycol ether 1 part by weight
(§8) A formulation of an active compound is obtained as an emulsifiable concentrate by mixing 1 part by weight of the active compound with the above-mentioned amount of the carrier and emulsifier. A prescribed amount of the formulation is diluted with water.
(§9) In a green house seeds or tubers of Scirpus juncoides Roxburgh, Monochoria vaginalis Presi, annual broad-leaved weeds (Lindemia procumbens Philcox, Rotala indica Koehne, Elatine triandra Schk, Ammannia multiflora Roxb., etc.), Cyperus serotinus Rottboel were inoculated in a 500 cm^2 pot filled with paddy field soil. Then water was poured to a depth of about 2-3 cm. Five days and 13 days after inoculation, a prescribed, diluted solution of the formulation of each active compound, prepared according to the aforementioned preparation method, was applied to the surface of water. After the treatment the water depth of 3 cm was maintained and the herbicidal effect was examined after 3 weeks from the treatment.
(§10) The herbicidal effect was rated 100% in the case of complete death and as 0% in the case of no herbicidal effect. In case of showing higher than 80% herbicidal effect, it is evaluated as practical as herbicide.

[13] = test system: annual broad-leaved weeds; assay: as above; conditions: examined 3 weeks after treatment
Method: as §6, §7, §8, §9, §10

[14] = test system: Scirpus juncoides Roxburgh; assay: as above; conditions: examined 3 weeks after treatment
Method: as §6, §7, §8, §9, §10

[15] = test system: Cyperus serotinus Rottboel; assay: as above; conditions: examined 3 weeks after treatment
Method: as §6, §7, §8, §9, §10

[16] = 60 g ai/ha, application 5 days after inoculation
[17] = 60 g ai/ha, application 13 days after inoculation
[18] = 30 g ai/ha, application 5 days after inoculation
[19] = 30 g ai/ha, application 13 days after inoculation

Structure (SMILES)	period showing sufficient residual herbicidal effectiveness Monochoria vaginalis [1]	period showing sufficient residual herbicidal effectiveness Sagittaria pygmaea (Sagittaria pygmaea Miq.)	period showing sufficient residual herbicidal effectiveness broad-leaved weeds [2]	period showing sufficient residual herbicidal effectiveness Scirpus juncoides [3]	herbicidal effect Monochoria vaginalis [4]	herbicidal effect broad-leaved weeds [5]	herbicidal effect Cyperus difformis L. (Cyperus difformis L.)	herbicidal effect Scirpus juncoides [6]	phytotoxicity to transplanted rice depth 0 cm [7]	phytotoxicity to transplanted rice depth 0.5 cm [7]	phytotoxicity to transplanted rice depth 2 cm [7]	Phytotoxicity to direct-seedling rice RD-23 [8]	Phytotoxicity to direct-seedling rice Nipponbare [9]	herbicidal effect against sulfonylurea resistant weeds Scirpus juncoides (collected in Iwamizawa area, Hokkaido) ([10]; 30 g ai/ha)	herbicidal effect against sulfonylurea resistant weeds Scirpus juncoides (collected in Iwamizawa area, Hokkaido) ([10]; 60 g ai/ha)	herbicidal effect against sulfonylurea resistant weeds Lindernia procumbens (collected in Kazo area, Saitama Pref.) ([11]; 30 g ai/ha)	herbicidal effect against sulfonylurea resistant weeds Lindernia procumbens (collected in Kazo area, Saitama Pref.) ([11]; 60 g ai/ha)	herbicidal effect Monochoria vaginalis [12, 18]	herbicidal effect Monochoria vaginalis [12, 19]	herbicidal effect broad-leaved weeds [13, 18]	further results
COCc1cccc(C(O)c2nc(OC)cc(OC)n2)c1NS(=O)(=O)C(F)F (centres unmarked) [Compound C-2, reference compound]	2 week	3 week	2 week	2 week	100%	100%	100%	90%	40%	30%	30%	30%	50%	–	–	–	–	–	–	–	–
COc1cc(OC)nc(Cc2cccc(Cl)c2NS(=O)(=O)C(F)F)n1 [Compound 11, 2-chloro-6-[(4,6-dimethoxypyrimidin-2-yl)methyl]-N-difluoromethanesulfonanilide]	3 week	4 week	4 week	4 week	100%	100%	100%	90%	15%	15%	10%	10%	10%	100%	100%	100%	100%	–	–	–	herbicidal effect Monochoria vaginalis [12, 16]: 100%; herbicidal effect Monochoria vaginalis [12, 17]: 100%; herbicidal effect broad-leaved weeds [13, 16]: 100%; herbicidal effect broad-leaved weeds [13, 17]: 100%; herbicidal effect Scirpus juncoides [14, 16]: 100%; herbicidal effect Scirpus juncoides [14, 17]: 100%; herbicidal effect Cyperus serotinus [15, 16]: 100%; herbicidal effect Cyperus serotinus [15, 17]: 95%
COc1cc(OC)nc(C(O)c2cccc(Cl)c2NS(=O)(=O)C(F)F)n1 (centres unmarked) [Compound 3, 2-chloro-6-[(4,6-dimethoxypyrimidin-2-yl)hydroxymethyl]-N-difluoromethanesulfonanilide]	–	–	–	–	100%	100%	100%	100%	–	–	–	10%	20%	100%	100%	100%	100%	100%	100%	100%	herbicidal effect broad-leaved weeds [13, 19]: 100%; herbicidal effect Scirpus juncoides [14, 18]: 100%; herbicidal effect Scirpus juncoides [14, 19]: 100%; herbicidal effect Cyperus serotinus [15, 18]: 100%; herbicidal effect Cyperus serotinus [15, 19]: 100%
COc1cc(OC)nc(C(=O)c2cccc(F)c2NS(=O)(=O)C(F)F)n1 [Compound 17, 2-fluoro-6-[(4,6-dimethoxypyrimidin-2-yl)carbonyl]-N-difluoromethanesulfonanilide]	–	–	–	–	–	–	–	–	–	–	–	–	–	100%	100%	95%	100%	100%	100%	100%	herbicidal effect broad-leaved weeds [13, 19]: 100%; herbicidal effect Scirpus juncoides [14, 18]: 100%; herbicidal effect Scirpus juncoides [14, 19]: 100%; herbicidal effect Cyperus serotinus [15, 18]: 100%; herbicidal effect Cyperus serotinus [15, 19]: 100%
